{"source": "patent US20220281848A1", "about": "“PYRAZOLE-SUBSTITUTED PYRROLIDINONES AS HERBICIDES” (FMC Corporation, priority 2019, published 2022)", "tested_on": "plants", "assay": "Test D pre-emergence, other plants of Tables D1 and D3", "assay_type": "in vivo", "conditions": "20 DAA; for damage to plant (100=total damage to plant; 0=no damage to plant), BIDPI / damage to plant (100=total damage to plant; 0=no damage to plant), BRAPL / damage to plant (100=total damage to plant; 0=no damage to plant), CYPES / damage to plant (100=total damage to plant; 0=no damage to plant), EPHHL / damage to plant (100=total damage to plant; 0=no damage to plant), GLXMA / damage to plant (100=total damage to plant; 0=no damage to plant), IPOHE / damage to plant (100=total damage to plant; 0=no damage to plant), SORVU: preemergent; for CHEAL damage rating / GALAP damage rating / KCHSC damage rating / LOLPE damage rating / POAAN damage rating / STEME damage rating / VERPE damage rating: pre-emergence, 100=total damage, 0=no damage", "summary_of_the_method": "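Damage was rated visually from 0 (none) to 100 (total), at 20 DAA for pre-emergence and 15 d for post-emergence. Plants grew from safener-treated seed in a glasshouse at 24/18° C. or 20/16° C. day/night, 65% humidity, watered twice daily.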"}
{"smiles": "CN1CC(c2cc(C(F)(F)F)n(C)n2)C(C(=O)Nc2ccc(F)cc2C(C)(F)F)C1=O", "note": "(racemic) [Compound 26]", "values": [{"measurement": "damage to plant (100=total damage to plant; 0=no damage to plant), BIDPI", "setting": "rate 15", "result": 0}, {"measurement": "damage to plant (100=total damage to plant; 0=no damage to plant), BIDPI", "setting": "rate 30", "result": 0}, {"measurement": "damage to plant (100=total damage to plant; 0=no damage to plant), BIDPI", "setting": "rate 60", "result": 0}, {"measurement": "damage to plant (100=total damage to plant; 0=no damage to plant), BIDPI", "setting": "rate 130", "result": 0}, {"measurement": "damage to plant (100=total damage to plant; 0=no damage to plant), BIDPI", "setting": "rate 250", "result": 0}, {"measurement": "damage to plant (100=total damage to plant; 0=no damage to plant), BIDPI", "setting": "rate 500", "result": 0}, {"measurement": "damage to plant (100=total damage to plant; 0=no damage to plant), BRAPL", "setting": "rate 15", "result": 0}, {"measurement": "damage to plant (100=total damage to plant; 0=no damage to plant), BRAPL", "setting": "rate 30", "result": 70}, {"measurement": "damage to plant (100=total damage to plant; 0=no damage to plant), BRAPL", "setting": "rate 60", "result": 80}, {"measurement": "damage to plant (100=total damage to plant; 0=no damage to plant), BRAPL", "setting": "rate 130", "result": 80}, {"measurement": "damage to plant (100=total damage to plant; 0=no damage to plant), BRAPL", "setting": "rate 250", "result": 80}, {"measurement": "damage to plant (100=total damage to plant; 0=no damage to plant), BRAPL", "setting": "rate 500", "result": 80}, {"measurement": "CHEAL damage rating", "setting": "Rates 15", "result": 0}, {"measurement": "CHEAL damage rating", "setting": "Rates 30", "result": 0}, {"measurement": "CHEAL damage rating", "setting": "Rates 60", "result": 0}, {"measurement": "CHEAL damage rating", "setting": "Rates 130", "result": 0}, {"measurement": "CHEAL damage rating", "setting": "Rates 250", "result": 10}, {"measurement": "CHEAL damage rating", "setting": "Rates 500", "result": 10}, {"measurement": "damage to plant (100=total damage to plant; 0=no damage to plant), CYPES", "setting": "rate 15", "result": 0}, {"measurement": "damage to plant (100=total damage to plant; 0=no damage to plant), CYPES", "setting": "rate 30", "result": 0}, {"measurement": "damage to plant (100=total damage to plant; 0=no damage to plant), CYPES", "setting": "rate 60", "result": 0}, {"measurement": "damage to plant (100=total damage to plant; 0=no damage to plant), CYPES", "setting": "rate 130", "result": 0}, {"measurement": "damage to plant (100=total damage to plant; 0=no damage to plant), CYPES", "setting": "rate 250", "result": 0}, {"measurement": "damage to plant (100=total damage to plant; 0=no damage to plant), CYPES", "setting": "rate 500", "result": 10}, {"measurement": "damage to plant (100=total damage to plant; 0=no damage to plant), EPHHL", "setting": "rate 15", "result": 0}, {"measurement": "damage to plant (100=total damage to plant; 0=no damage to plant), EPHHL", "setting": "rate 30", "result": 0}, {"measurement": "damage to plant (100=total damage to plant; 0=no damage to plant), EPHHL", "setting": "rate 60", "result": 0}, {"measurement": "damage to plant (100=total damage to plant; 0=no damage to plant), EPHHL", "setting": "rate 130", "result": 0}, {"measurement": "damage to plant (100=total damage to plant; 0=no damage to plant), EPHHL", "setting": "rate 250", "result": 0}, {"measurement": "damage to plant (100=total damage to plant; 0=no damage to plant), EPHHL", "setting": "rate 500", "result": 0}, {"measurement": "GALAP damage rating", "setting": "Rates 15", "result": 0}, {"measurement": "GALAP damage rating", "setting": "Rates 30", "result": 0}, {"measurement": "GALAP damage rating", "setting": "Rates 60", "result": 0}, {"measurement": "GALAP damage rating", "setting": "Rates 130", "result": 0}, {"measurement": "GALAP damage rating", "setting": "Rates 250", "result": 0}, {"measurement": "GALAP damage rating", "setting": "Rates 500", "result": 20}, {"measurement": "damage to plant (100=total damage to plant; 0=no damage to plant), GLXMA", "setting": "rate 15", "result": 0}, {"measurement": "damage to plant (100=total damage to plant; 0=no damage to plant), GLXMA", "setting": "rate 30", "result": 0}, {"measurement": "damage to plant (100=total damage to plant; 0=no damage to plant), GLXMA", "setting": "rate 60", "result": 0}, {"measurement": "damage to plant (100=total damage to plant; 0=no damage to plant), GLXMA", "setting": "rate 130", "result": 0}, {"measurement": "damage to plant (100=total damage to plant; 0=no damage to plant), GLXMA", "setting": "rate 250", "result": 0}, {"measurement": "damage to plant (100=total damage to plant; 0=no damage to plant), GLXMA", "setting": "rate 500", "result": 0}, {"measurement": "damage to plant (100=total damage to plant; 0=no damage to plant), IPOHE", "setting": "rate 15", "result": 0}, {"measurement": "damage to plant (100=total damage to plant; 0=no damage to plant), IPOHE", "setting": "rate 30", "result": 0}, {"measurement": "damage to plant (100=total damage to plant; 0=no damage to plant), IPOHE", "setting": "rate 60", "result": 0}, {"measurement": "damage to plant (100=total damage to plant; 0=no damage to plant), IPOHE", "setting": "rate 130", "result": 0}, {"measurement": "damage to plant (100=total damage to plant; 0=no damage to plant), IPOHE", "setting": "rate 250", "result": 0}, {"measurement": "damage to plant (100=total damage to plant; 0=no damage to plant), IPOHE", "setting": "rate 500", "result": 0}, {"measurement": "KCHSC damage rating", "setting": "Rates 15", "result": 0}, {"measurement": "KCHSC damage rating", "setting": "Rates 30", "result": 0}, {"measurement": "KCHSC damage rating", "setting": "Rates 60", "result": 0}, {"measurement": "KCHSC damage rating", "setting": "Rates 130", "result": 0}, {"measurement": "KCHSC damage rating", "setting": "Rates 250", "result": 0}, {"measurement": "KCHSC damage rating", "setting": "Rates 500", "result": 0}, {"measurement": "LOLPE damage rating", "setting": "Rates 15", "result": 0}, {"measurement": "LOLPE damage rating", "setting": "Rates 30", "result": 0}, {"measurement": "LOLPE damage rating", "setting": "Rates 60", "result": 0}, {"measurement": "LOLPE damage rating", "setting": "Rates 130", "result": 30}, {"measurement": "LOLPE damage rating", "setting": "Rates 250", "result": 90}, {"measurement": "LOLPE damage rating", "setting": "Rates 500", "result": 90}, {"measurement": "POAAN damage rating", "setting": "Rates 15", "result": 0}, {"measurement": "POAAN damage rating", "setting": "Rates 30", "result": 0}, {"measurement": "POAAN damage rating", "setting": "Rates 60", "result": 0}, {"measurement": "POAAN damage rating", "setting": "Rates 130", "result": 30}, {"measurement": "POAAN damage rating", "setting": "Rates 250", "result": 60}, {"measurement": "POAAN damage rating", "setting": "Rates 500", "result": 100}, {"measurement": "damage to plant (100=total damage to plant; 0=no damage to plant), SORVU", "setting": "rate 15", "result": 0}, {"measurement": "damage to plant (100=total damage to plant; 0=no damage to plant), SORVU", "setting": "rate 30", "result": 0}, {"measurement": "damage to plant (100=total damage to plant; 0=no damage to plant), SORVU", "setting": "rate 60", "result": 0}, {"measurement": "damage to plant (100=total damage to plant; 0=no damage to plant), SORVU", "setting": "rate 130", "result": 0}, {"measurement": "damage to plant (100=total damage to plant; 0=no damage to plant), SORVU", "setting": "rate 250", "result": 0}, {"measurement": "damage to plant (100=total damage to plant; 0=no damage to plant), SORVU", "setting": "rate 500", "result": 0}, {"measurement": "STEME damage rating", "setting": "Rates 15", "result": 0}, {"measurement": "STEME damage rating", "setting": "Rates 30", "result": 0}, {"measurement": "STEME damage rating", "setting": "Rates 60", "result": 0}, {"measurement": "STEME damage rating", "setting": "Rates 130", "result": 10}, {"measurement": "STEME damage rating", "setting": "Rates 250", "result": 40}, {"measurement": "STEME damage rating", "setting": "Rates 500", "result": 70}, {"measurement": "VERPE damage rating", "setting": "Rates 15", "result": 0}, {"measurement": "VERPE damage rating", "setting": "Rates 30", "result": 0}, {"measurement": "VERPE damage rating", "setting": "Rates 60", "result": 0}, {"measurement": "VERPE damage rating", "setting": "Rates 130", "result": 0}, {"measurement": "VERPE damage rating", "setting": "Rates 250", "result": 10}]}
